Assay results as given in US5593984A, “Cephalosporin derivatives” (Yuhan Corporation, priority 1992, dated 1997).
In brackets after ≈: the same amount, converted by molar mass.

Tests used:
Type in all cases: cell-based
[1] = test system: K. pneumoniae NCTC 9632; test: MIC by agar dilution, K. pneumoniae NCTC 9632; conditions: Klebsiella pneumoniae, NCTC9632, 17 h; K. pneumoniae NCTC 9632; agar dilution, Mueller-Hinton agar; read-out: Minimal Inhibitory Concentration (MIC)
Procedure: (§1) These MIC values were determined by agar dilution method: that is, two-fold dilutions of each of the test compounds were made and dispersed in a Mueller-Hinton agar medium; standard test strain which had the 10^6 CFU (Colony Forming Unit) per ml was inoculated on the medium with microplanter (Toyo, Japan), and incubated at 35°-37° C. for 17±1 hours. The structures of Ceftazidime (CAZ) and Cefotaxime (CTX) which are used as control compounds are as follows: [drawing 12]

[2] = test system: Ps. aeruginosa DY-2; test: MIC by agar dilution, Ps. aeruginosa DY-2; conditions: Pseudomonas aeruginosa, DY2, 17 h; Ps. aeruginosa DY-2; agar dilution, Mueller-Hinton agar; read-out: Minimal Inhibitory Concentration (MIC)
Procedure: as §1

[3] = test system: Ps. aeruginosa ATCC 10145; test: MIC by agar dilution, Ps. aeruginosa ATCC 10145; conditions: Pseudomonas aeruginosa, ATCC10145, 17 h, Mueller-Hinton agar, read-out: Minimal Inhibitory Concentration (MIC)
Procedure: as §1

[4] = test system: Ent. cloacae IFO 13535; test: MIC by agar dilution, Ent. cloacae IFO 13535; conditions: Enterobacter cloacae, IFO13535, 17 h; Ent. cloacae IFO 13535; agar dilution, Mueller-Hinton agar; read-out: Minimal Inhibitory Concentration (MIC)
Procedure: as §1

[5] = test system: Staph. aureus Smith; test: MIC by agar dilution, Staph. aureus Smith; conditions: Staphylococcus aureus, 17 h, Mueller-Hinton agar, read-out: Minimal Inhibitory Concentration (MIC)
Procedure: as §1

[6] = test system: Prov. stuartii IFO 12930; test: MIC by agar dilution, Prov. stuartii IFO 12930; conditions: Providencia stuartii, IFO12930, 17 h, Mueller-Hinton agar, read-out: Minimal Inhibitory Concentration (MIC)
Procedure: as §1

[7] = test system: M. morganii DY-1; test: MIC by agar dilution, M. morganii DY-1; conditions: Morganella morganii, DY1, 17 h; M. morganii DY-1; agar dilution, Mueller-Hinton agar; read-out: Minimal Inhibitory Concentration (MIC)
Procedure: as §1

[8] = test system: Ps. aeruginosa NCTC 10490; test: MIC by agar dilution, Ps. aeruginosa NCTC 10490; conditions: Pseudomonas aeruginosa, NCTC10490, 17 h, Mueller-Hinton agar, read-out: Minimal Inhibitory Concentration (MIC)
Procedure: as §1

[9] = test system: E. coli No. 29; test: MIC by agar dilution, E. coli No. 29; conditions: Escherichia coli, 17 h; E. coli No. 29; agar dilution, Mueller-Hinton agar; read-out: Minimal Inhibitory Concentration (MIC)
Procedure: as §1

[10] = test system: E. coli DY-1; test: MIC by agar dilution, E. coli DY-1; conditions: Escherichia coli, DY1, 17 h; E. coli DY-1; agar dilution, Mueller-Hinton agar; read-out: Minimal Inhibitory Concentration (MIC)
Procedure: as §1

[11] = test system: P. vulgaris NCTC 8313; test: MIC by agar dilution, P. vulgaris NCTC 8313; conditions: Proteus vulgaris, NCTC8313, 17 h; P. vulgaris NCTC 8313; agar dilution, Mueller-Hinton agar; read-out: Minimal Inhibitory Concentration (MIC)
Procedure: as §1

[12] = test system: E. coli NIHJ JC-2; test: MIC by agar dilution, E. coli NIHJ JC-2; conditions: Escherichia coli, NIHJJC2, 17 h; E. coli NIHJ JC-2; agar dilution, Mueller-Hinton agar; read-out: Minimal Inhibitory Concentration (MIC)
Procedure: as §1

[13] = test system: Ent. aerogenes IFO 12979; test: MIC by agar dilution, Ent. aerogenes IFO 12979; conditions: Klebsiella aerogenes, IFO12979, 17 h, Mueller-Hinton agar, read-out: Minimal Inhibitory Concentration (MIC)
Procedure: as §1

[14] = test system: Staph. aureus C-57; test: MIC by agar dilution, Staph. aureus C-57; conditions: Staphylococcus aureus, C57, 17 h, Mueller-Hinton agar, read-out: Minimal Inhibitory Concentration (MIC)
Procedure: as §1

[15] = test system: B. subtilis ATCC 6633; test: MIC by agar dilution, B. subtilis ATCC 6633; conditions: Bacillus subtilis, ATCC6633, 17 h; B. subtilis ATCC 6633; agar dilution, Mueller-Hinton agar; read-out: Minimal Inhibitory Concentration (MIC)
Procedure: as §1

[16] = test system: S. epidermidis ATCC 12228; test: MIC by agar dilution, S. epidermidis ATCC 12228; conditions: Staphylococcus epidermidis, ATCC12228, 17 h; S. epidermidis ATCC 12228; agar dilution, Mueller-Hinton agar; read-out: Minimal Inhibitory Concentration (MIC)
Procedure: as §1

[17] = test system: Staph. aureus C-5216; test: MIC by agar dilution, Staph. aureus C-5216; conditions: Staphylococcus aureus, C5216, 17 h, Mueller-Hinton agar, read-out: Minimal Inhibitory Concentration (MIC)
Procedure: as §1

[18] = test system: Staph. aureus C-5113; test: MIC by agar dilution, Staph. aureus C-5113; conditions: Staphylococcus aureus, C5113, 17 h, Mueller-Hinton agar, read-out: Minimal Inhibitory Concentration (MIC)
Procedure: as §1

[19] = test system: Staph. aureus ATCC 6538P; test: MIC by agar dilution, Staph. aureus ATCC 6538P; conditions: Staphylococcus aureus, ATCC6538P, 17 h; Staph. aureus ATCC 6538P; agar dilution, Mueller-Hinton agar; read-out: Minimal Inhibitory Concentration (MIC)
Procedure: as §1

[20] = test system: Ser. marcescens IFO 12648; test: MIC by agar dilution, Ser. marcescens IFO 12648; conditions: Serratia marcescens, IFO12648, 17 h; Ser. marcescens IFO 12648; agar dilution, Mueller-Hinton agar; read-out: Minimal Inhibitory Concentration (MIC)
Procedure: as §1

MIC [1] [µg/mL]	MIC [2] [µg/mL]	MIC [3] [µg/mL]	MIC [4] [µg/mL]	MIC [5] [µg/mL]	MIC [6] [µg/mL]	MIC [7] [µg/mL]	MIC [8] [µg/mL]	MIC [9] [µg/mL]	MIC [10] [µg/mL]	MIC [11] [µg/mL]	MIC [12] [µg/mL]	MIC [13] [µg/mL]	MIC [14] [µg/mL]	MIC [15] [µg/mL]	MIC [16] [µg/mL]	MIC [17] [µg/mL]	MIC [18] [µg/mL]	MIC [19] [µg/mL]	MIC [20] [µg/mL]	SMILES
0.05 (≈ 0.0895 µM)	25 (≈ 44.8 µM)	6.25 (≈ 11.2 µM)	0.78 (≈ 1.4 µM)	1.56 (≈ 2.79 µM)	≤ 0.006	0.05 (≈ 0.0895 µM)	1.56 (≈ 2.79 µM)	0.05 (≈ 0.0895 µM)	0.05 (≈ 0.0895 µM)	0.012 (≈ 0.0215 µM)	0.1 (≈ 0.179 µM)	0.05 (≈ 0.0895 µM)	25 (≈ 44.8 µM)	0.39 (≈ 0.698 µM)	0.05 (≈ 0.0895 µM)	1.56 (≈ 2.79 µM)	3.13 (≈ 5.6 µM)	0.39 (≈ 0.698 µM)	0.1 (≈ 0.179 µM)	CON=C(C(=O)NC1C(=O)N2C(C(=O)[O-])=C(C[n+]3ccn4c([N+](=O)[O-])ccc4c3)CSC12)c1csc(N)n1 (stereo not drawn) [Ex. 14, 7-β-[(Z)-2-(2-aminothiazol-4-yl)-2-methoxyiminoacetamido]-3-(6-nitropyrrolo[1,2-a]pyrazinium-2-yl)methyl-3-cephem-4-carboxylate]
≤ 0.006	3.13 (≈ 5.62 µM)	0.39 (≈ 0.701 µM)	0.1 (≈ 0.18 µM)	0.39 (≈ 0.701 µM)	≤ 0.006	≤ 0.006	0.1 (≈ 0.18 µM)	≤ 0.006	≤ 0.006	0.012 (≈ 0.0216 µM)	≤ 0.006	≤ 0.006	12.5 (≈ 22.5 µM)	0.05 (≈ 0.0898 µM)	0.025 (≈ 0.0449 µM)	0.78 (≈ 1.4 µM)	0.78 (≈ 1.4 µM)	0.2 (≈ 0.359 µM)	0.012 (≈ 0.0216 µM)	CON=C(C(=O)NC1C(=O)N2C(C(=O)[O-])=C(C[n+]3ccn4c(C(N)=O)ccc4c3)CSC12)c1csc(N)n1 (stereo not drawn) [Ex. 15, 7-β-[(Z)-2-(2-aminothiazol-4-yl)-2-methoxyiminoacetamido]-3-(6-carbamoylpyrrolo[1,2-a]pyrazinium-2-yl)methyl-3-cephem-4-carboxylate]
0.025 (≈ 0.0438 µM)	6.25 (≈ 11 µM)	1.56 (≈ 2.73 µM)	0.78 (≈ 1.37 µM)	0.78 (≈ 1.37 µM)	0.025 (≈ 0.0438 µM)	0.025 (≈ 0.0438 µM)	0.39 (≈ 0.683 µM)	0.05 (≈ 0.0876 µM)	0.025 (≈ 0.0438 µM)	0.012 (≈ 0.021 µM)	0.1 (≈ 0.175 µM)	0.025 (≈ 0.0438 µM)	12.5 (≈ 21.9 µM)	0.1 (≈ 0.175 µM)	0.05 (≈ 0.0876 µM)	1.56 (≈ 2.73 µM)	1.56 (≈ 2.73 µM)	0.2 (≈ 0.351 µM)	0.1 (≈ 0.175 µM)	CCON=C(C(=O)NC1C(=O)N2C(C(=O)[O-])=C(C[n+]3ccn4c(C(N)=O)ccc4c3)CSC12)c1csc(N)n1 (stereo not drawn) [Ex. 16, 7-β-[(Z)-2-(2-aminothiazol-4-yl)-2-ethoxyiminoacetamido]-3-(6-carbamoylpyrrolo[1,2-a]pyrazinium-2-yl)methyl-3-cephem-4-carboxylate]
0.025 (≈ 0.0448 µM)	3.13 (≈ 5.61 µM)	1.56 (≈ 2.8 µM)	0.39 (≈ 0.699 µM)	0.78 (≈ 1.4 µM)	≤ 0.006	0.025 (≈ 0.0448 µM)	0.2 (≈ 0.359 µM)	0.012 (≈ 0.0215 µM)	0.025 (≈ 0.0448 µM)	0.012 (≈ 0.0215 µM)	0.025 (≈ 0.0448 µM)	0.025 (≈ 0.0448 µM)	25 (≈ 44.8 µM)	0.1 (≈ 0.179 µM)	0.1 (≈ 0.179 µM)	1.56 (≈ 2.8 µM)	1.56 (≈ 2.8 µM)	0.39 (≈ 0.699 µM)	0.05 (≈ 0.0897 µM)	CON=C(C(=O)NC1C(=O)N2C(C(=O)[O-])=C(C[n+]3ccn4c(C(=O)O)ccc4c3)CSC12)c1csc(N)n1 (stereo not drawn) [Ex. 17, 7-β-[(Z)-2-(2-aminothiazol-4-yl)-2-methoxyiminoacetamido]-3-(6-carboxypyrrolo[1,2-a]pyrazinium-2-yl)methyl-3-cephem-4-carboxylate]
